Test results taken from patent US20060167094A1, “Satiety agent” (priority 2005, published 2006).

What was measured:
[1] = cited from earlier work
[2] = Antropyloroduodenal (APD) pressures by manometry during intraduodenal infusion; type: in vivo, human
Text: Subjects attended the laboratory at 0830 after fasting from 2200 the previous night from both solids and liquids. They were intubated with a 17-channel manometric catheter (Dentsleeve; Adelaide, South Australia, Australia) that was inserted through an anesthetized nostril and allowed to pass through the stomach and into the duodenum by peristalsis. The manometric catheter, which consisted of 16 sideholes spaced at 1.5-cm intervals, measures pressures in the antrum, pylorus, and duodenum. Six side holes (channels 1-6) were positioned in the antrum, a 4.5-cm sleeve sensor (channel 7), with two channels present on the back of the sleeve (channels 8 and 9), designed to measure pressure waves occurring over the entire pyloric region, were positioned across the pylorus, and seven channels were positioned in the duodenum (channels 10-16). An additional channel, used for intraduodenal infusions, was positioned 11.75 cm distal to the end of the sleeve sensor. The correct positioning of the catheter, so the sleeve sensor straddled the pylorus, was maintained by continuous measurement of the transmucosal potential difference (TMPD) between the most distal antral channel (channel 6; approximately −40 mV) and the most proximal duodenal channel (channel 10; ˜0 mV). For this purpose, an intravenous cannula filled with sterile saline was placed subcutaneously in the left forearm and used as a reference electrode. All manometric channels were perfused with degassed, distilled water except for the two TMPD channels, which were perfused with degassed 0.9% saline at 0.15 ml/min. An intravenous cannula was also placed into a right forearm vein for blood sampling to measure plasma CCK and GLP-1 concentrations.
(§1) Once the catheter was positioned correctly, fasting motility was monitored until the occurrence of phase III of the interdigestive migrating motor complex (MMC). Immediately after the cessation of phase III activity [at time t=−15 min], a baseline venous blood sample was taken, and a visual analog scale questionnaire (VAS) (see Measurements), assessing appetite-related sensations, was administered. At t=0 min (i.e., during phase I of the MMC), the duodenal infusion of 1) C12, 2) C10, or 3) control solution was commenced and continued for 90 min. APD pressures were monitored throughout the infusion period; blood samples were taken, and the VAS administered every 15 min from t=0 min until t=90 min. At t=90 min, the infusion was terminated, and the subject was immediately extubated and offered a cold buffet-style meal, the composition of which is provided in Table 1. The amount of food offered was in excess of what the subject was expected to consume. The subject was given 30 min (i.e., t=90 min to t=120 min) to consume the meal and instructed to eat until comfortably full. After ingestion of the meal, the subject was monitored for a further 30 min, a further VAS was completed, and blood samples were taken at t=120 and 150 min. The intravenous cannula was then removed, and the subject was allowed to leave the laboratory.
APD pressures. Manometric pressures were digitized, recorded on a computer-based system (PowerMac 7100/75, Apple Computers; Cupertino, Calif.) running commercially available software (HAD, Associate Prof. G S Hebbard, Melbourne, Australia) written in LabView 3.1.1 (National Instruments), and stored for subsequent analysis. APD pressures were analysed for 1) number and amplitude of isolated pyloric pressure waves (IPPWs) and pressure waves (PWs) in the antrum and duodenum and 2) number and length of PW sequences (PWSs) in the duodenum using custom-written software (Gastrointestinal Motility Unit; Utrecht, The Netherlands) modified to our requirements. […]

[3] = Energy intake from the buffet meal after intraduodenal infusion; type: in vivo, human
Experimental: Each subject was studied on three occasions, separated by 3-10 days, to evaluate, in a double-blind, randomized fashion, the effects of intraduodenal infusions of 1) C12, 2) C10, or 3) control solution for 90 min on appetite perceptions, energy intake, APD pressures, and plasma CCK and GLP-1 concentrations.
as §1
Energy intake from the buffet meal [energy consumption (in kJ) and macronutrient distribution (in % and g energy)] was analyzed using commercially available software (Food works 3.0, Xyris Software; Highgate Hill, Queensland, Australia). The time taken to finish the meal (in min) was also evaluated.

CCK secretion = settings: gastric infusion, humans; cited from earlier work
[4] = at similar concentrations; cited from earlier work
plasma CCK = experiment: Plasma CCK concentrations by radioimmunoassay; type: in vivo, human
Experimental: as §1
Venous blood samples (10 ml) were collected in ice-chilled EDTA-treated tubes containing 400 kIU aprotinin (Trasylol, Bayer Australia) per millilitre of blood. Plasma was separated by centrifugation (3,200 rpm, 15 min, 4° C.) within 30 min of collection and stored at −70° C. until assayed.
Plasma CCK concentrations (in pmol/l) were determined after ethanol extraction using a previously described radioimmunoassay (3). A commercially available antibody (C258, Lot 105H4852, Sigma Chemical) raised in rabbits against the synthetic sulfated CCK-8 was employed. […] The intra-assay coefficient of variation (CV) was 9% and the interassay CV was 27%, with a sensitivity of 2.5 pmol/l. The sensitivity of the assay relates to its reliable detection limit.

[5] = 90 min infusion, compared with control
[6] = buffet meal, compared with control

CCCCCCCCCCCC(=O)O [C12, lauric acid]
adverse effects of perfusion into human duodenum ([1]; 0.36 kcal/min): without adverse effects
rate of emptying from the human stomach ([1]; in vivo): 0.375 kcal/min
basal pyloric pressure (tone) [2, 5]: increased basal pyloric pressure
number of antral PWs [2, 5]: decreased the number of antral PWs compared with control
number of duodenal PWs [2, 5]: decreased the number of duodenal PWs
number of IPPWs compared with control ([2]; C12: 0-15, 15-30 and 30-45 min, C10: 0-15 min): increased the number of IPPWs
length of antegrade peristalsis in the duodenum ([2]; C12 infusion): did not abolish but did shorten
onset of gastrointestinal effects ([2]; C12 infusion 0.375 kcal/min): ~15 min
amplitude of IPPWs compared with control ([2]; between 0-15 and 15-30 min): increased the amplitude of IPPWs compared with control
number of IPPWs compared with C10 ([2]; between 15-30 and 30-45 min): increased the number of IPPWs
amplitude of IPPWs compared with control ([2]; between 60 and 75 min): decreased the amplitude of IPPWs
amplitude of IPPWs compared with C10 ([2]; between 75 and 90 min): decreased the amplitude of IPPWs
number of duodenal PWSs travelling over three channels (3 to <4.5 cm) ([2]; compared with C10): decreased the number of waves that travelled over three channels compared with C10
amplitude of antral pressures ([2]; compared with both C10 and control infusions, trend P=0.080): tended to be lower
number of duodenal PWSs travelling over six channels (7.5 to <9 cm) ([2]; compared with control): decreased the number of waves that travelled over six channels compared with control
number of duodenal PWSs travelling over three channels (3 to <4.5 cm) ([2]; compared with control): no difference between C12 or C10 and control
number of duodenal PWSs travelling over two channels (1.5 to <3 cm) ([2]; compared with control): decreased the number of waves that travelled over two channels compared with control
number of waves that travelled over nine channels ([2]; compared with control): decreased the number of waves that travelled over nine channels
motor pattern on visual inspection of pressure traces ([2]; intraduodenal infusion 0.375 kcal/min): antral and duodenal PWs were inhibited and pyloric pressures stimulated
energy intake at buffet meal ([3]; after 90 min intraduodenal infusion 0.375 kcal/min, compared with control): dramatically decreased energy intake compared with control
reduction of energy intake compared with the control infusion ([3]; all subjects, C12 total energy delivered 141 kJ): ~2,857 kJ
amount of energy (in g) ingested from carbohydrate [3, 6]: reduced
amount of energy (in g) ingested from fat [3, 6]: reduced
amount of energy (in g) ingested from protein [3, 6]: reduced
potency as suppressant of energy intake relative to C18:1 ([3]; isoenergetic amounts, intraduodenal, humans): more potent suppressant of energy intake
time at which eating from the buffet meal was completed ([3]; mean±SE, not statistically significant): 13 ± 3.5 min
energy intake in the absence of nausea ([3]; non-nauseated subjects): inhibited energy intake in the absence of nausea
magnitude of the reduction in energy intake ([3]; subjects that did not experience nausea): ~1,801 kJ
magnitude of the reduction in energy intake ([3]; subjects who reported nausea): ~3,840 kJ
stimulation of CCK secretion (CCK secretion): reported to stimulate CCK secretion
cytotoxicity relative to C18:1 [4]: half as cytotoxic as C18:1
plasma CCK concentrations (plasma CCK; during 90 min infusion, compared with control): increased plasma CCK compared with control
time of rapid rise in plasma CCK (plasma CCK; from start of infusion, then plateaued): ≤ 15 min
magnitude of the rise in plasma CCK (plasma CCK; in the first 15 min of infusion, 0.375 kcal/min): ~12 pmol/L
plasma CCK level relative to postprandial level (plasma CCK; versus levels after the buffet meal following control infusion): comparable to postprandial levels after the control infusion
